# Assay results taken from patent publication US6339077B1, “Substituted 4-benzylaminoquinolines and their hetero analogs, process for their preparation, pharmaceuticals containing these compounds and use thereof” (Aventis Pharma Deutschland GmbH, priority 1999, dated 2002).
# Biological target: T1, human NHE-3 protein (expressed in the LAP1 cell line) (Homo sapiens, UniProt P48764)
# T1 construct: expressed in transfected cells; host or cells: LAP1 cell line
# T1 sequence (P48764 26-834): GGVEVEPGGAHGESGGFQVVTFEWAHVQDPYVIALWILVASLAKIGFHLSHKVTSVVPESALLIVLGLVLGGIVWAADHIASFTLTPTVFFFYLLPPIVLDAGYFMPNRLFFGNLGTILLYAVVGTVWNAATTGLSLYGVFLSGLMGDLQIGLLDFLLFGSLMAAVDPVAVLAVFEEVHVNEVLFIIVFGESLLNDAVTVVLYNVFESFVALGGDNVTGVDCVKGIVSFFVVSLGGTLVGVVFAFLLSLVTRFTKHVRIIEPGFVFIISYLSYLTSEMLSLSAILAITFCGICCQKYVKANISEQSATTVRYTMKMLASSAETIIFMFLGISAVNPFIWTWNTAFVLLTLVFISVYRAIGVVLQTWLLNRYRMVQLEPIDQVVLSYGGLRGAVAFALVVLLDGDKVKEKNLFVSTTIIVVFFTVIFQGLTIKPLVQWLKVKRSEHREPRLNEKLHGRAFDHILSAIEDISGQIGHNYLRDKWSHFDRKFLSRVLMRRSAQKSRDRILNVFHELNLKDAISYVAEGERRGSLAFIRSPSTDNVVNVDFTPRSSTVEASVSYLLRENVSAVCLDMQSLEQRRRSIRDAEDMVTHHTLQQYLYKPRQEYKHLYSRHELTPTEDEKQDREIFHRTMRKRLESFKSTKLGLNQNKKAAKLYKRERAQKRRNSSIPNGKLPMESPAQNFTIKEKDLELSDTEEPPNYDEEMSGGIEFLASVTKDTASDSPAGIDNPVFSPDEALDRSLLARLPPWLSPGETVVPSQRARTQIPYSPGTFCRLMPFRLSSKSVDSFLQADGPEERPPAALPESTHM
# Assay: Inhibition of sodium/proton exchanger subtype 3: recovery of intracellular pH after acidification (BCECF fluorescence)
# Assay type: cell-based
# Conditions: at 30 μM, pHi recovery as percentage of the maximum recovery
# Method: Biological testing of the novel compounds was accomplished by measuring inhibition of the sodium/proton exchanger subtype 3.
# The remaining activity of the human NHE-3 protein (expressed in the LAP1 cell line) was determined by measuring the recovery in the intracellular pH (pHi) after an acidification, which starts when the NHE is capable of functioning, even under bicarbonate-free conditions. For this purpose, the pHi was determined using the pH-sensitive fluorescent dye BCECF (Calbiochem, the precursor BCECF-AM is employed). The cells were initially loaded with BCECF. […] The intracellular acidification was induced by addition of 975 μl of an NH4Cl-free buffer (see below) to 25 μl aliquots of the cells incubated in NH4Cl buffer. The subsequent rate of pH recovery was recorded for 3 minutes. To calculate the inhibitory power of the substances tested, the cells were initially investigated in buffers in which complete or absolutely no pH recovery took place. […] Test solutions of the substances of interest were made up in the Na^+-containing buffer. Recovery of the intracellular pH at the tested concentration of a substance was expressed as a percentage of the maximum recovery.
row,SMILES,remaining activity of hNHE3 [%]
1,"CC(=O)c1c(C)nc2ccccc2c1NCc1ccc(CCC2(O)CCC3(C)C(CC(O)C4C3CC(O)C3(C)C(C(C)CCC(=O)O)CCC43)C2)cc1 (stereo not drawn) [Example 2, 2-Methyl-3-acetyl-4-{4-[1-(3α,7α, 12α-trihydroxy-10β,13β-dimethyl-17β-(3-carboxy-1-methylpropyl)hexadecahydrocyclopenta[a]phenanthren-3-yl)eth-2-yl]benzylamino}quinoline]",33
2,"CC(=O)c1c(C)nc2ccccc2c1NCc1ccccc1CCC1(O)CCC2(C)C(CC(O)C3C2CC(O)C2(C)C(C(C)CCC(=O)O)CCC32)C1 (stereo not drawn) [Example 18, 2-Methyl-3-acetyl-4-{2-[1-(3α,7α,12α-trihydroxy-10β,13β-dimethyl-17β(3-carboxy-1-methylpropyl)hexadecahydrocyclopenta[a]phenanthren-3-yl)eth-2-yl]benzylamino}quinoline]",36

# Same assay, conditions: pHi recovery as percentage of the maximum recovery, read-out: remaining activity of hNHE3
row,SMILES,remaining activity at 30 µM [%]
1,"CC(=O)c1c(C)nc2ccccc2c1NCc1ccccc1C#CC1(O)CC[C@@]2(C)C(CC(O)C3C2CC(O)[C@@]2(C)C3CC[C@@H]2[C@H](C)CCC(=O)O)C1 (stereo partly drawn) [Example 17, 2-Methyl-3-acetyl-4-{2-[1-(3α,7α,12α-trihydroxy-10β,13β-dimethyl-17β-(3-carboxy-1-methylpropyl)hexadecahydrocyclopenta[a]phenanthren-3-yl)ethyn-2-yl]benzylamino}quinoline]",36
2,"CC(=O)c1c(C)nc2ccccc2c1NCc1ccc(CCC2(O)CCC3(C)C(CC(O)C4C3CC(O)C3(C)C4CC[C@@H]3C(C)CCC(=O)O)C2)cc1Cl (stereo partly drawn) [Example 29, 2-Methyl-3-acetyl-4-{4-[1-(3α,7α,12α-trihydroxy-10β,13β-dimethyl-17β(3-carboxy-1-methylpropyl)hexadecahydrocyclopenta[a]phenanthren-3-yl)eth-2-yl]-2-chlorobenzylamino}quinoline]",61
3,"CC(=O)c1c(C)nc2ccccc2c1NCc1ccc(CCC2(O)CCC3(C)C(CC(O)C4C3CC(O)C3(C)C4CC[C@@H]3C(C)CCC(=O)O)C2)cc1F (stereo partly drawn) [Example 27, 2-Methyl-3-acetyl-4-{4-[1-(3α,7α,12α-trihydroxy-10β,13β-dimethyl-17β-(3-carboxy-1-methylpropyl)hexadecahydrocyclopenta[a]phenanthren-3-yl)eth-2-yl]-2-fluorobenzylamino}quinoline]",54
4,"CC(=O)c1c(C)nc2ccccc2c1NCc1ccc(C#CC2(O)CCC3(C)C(CC(O)C4C3CC(O)C3(C)C4CC[C@@H]3C(C)CCC(=O)O)C2)cc1 (stereo partly drawn) [Example 1, 2-Methyl-3-acetyl-4-{4-[1-(3α,7α, 12α-trihydroxy-10β, 13β-dimethyl-17β-(carboxy-1-methylpropyl)hexadecahydrocyclopenta[a]phenanthren-3-yl)ethyn-2-yl]-benzylamino}quinoline]",26
5,"COC(=O)c1c(C)nc2ccccc2c1NCc1ccc(C#CC2(O)CCC3(C)C(CC(O)C4C3CC(O)C3(C)C4CC[C@@H]3C(C)CCC(=O)O)C2)cc1 (stereo partly drawn) [Example 6, Methyl 2-methyl-4-{4-[1-(3α,7α,12α-trihydroxy-10β, 13β-dimethyl-17β-(3carboxy-1-methylpropyl)hexadecahydrocyclopenta[a]phenanthren-3-yl)ethyn-2-yl]benzylamino}quinoline-3-carboxylate]",39
6,"CC(=O)c1c(NCc2ccc(CCC3(O)CC[C@@]4(C)C(CC(O)C5C4CC(O)[C@@]4(C)C5CC[C@@H]4[C@H](C)CCC(=O)O)C3)cc2)cc(C)nc1C (stereo partly drawn) [Example 31, 2,6-Dimethyl-3-acetyl-4-{4-[1-(3α,7α,12α-trihydroxy-10β,13β-dimethyl-17β-(3-carboxy-1-methylpropyl)hexadecahydrocyclopenta[a]phenanthren-3-yl)eth-2-yl]benzylamino}pyridine]",69
7,"CC(=O)c1c(C)nc2ccccc2c1NCc1cccc(CC[C@@]2(O)CC[C@@]3(C)C(C[C@@H](O)C4C3C[C@H](O)[C@@]3(C)C4CC[C@@H]3[C@H](C)CCC(=O)NCC(=O)O)C2)c1 (stereo partly drawn) [Example 15, 2-Methyl-3-acetyl-4-{3-[1-(3α,7α,12α-trihydroxy-10β,13β-dimethyl-17β-(3-carboxymethylcarbamoyl-1-methylpropyl)hexadecahydrocyclopenta[a]phenanthren-3-yl)eth-2-yl]benzylamino}quinoline]",65
8,"COC(=O)CC[C@@H](C)[C@H]1CCC2C3C(C[C@H](O)[C@@]21C)[C@@]1(C)CC[C@H](OCCNC(=O)c2c(C)nc4ccccc4c2NCc2ccccc2)CC1C[C@H]3O (stereo partly drawn) [Example 3, 2-Methyl-4-aminobenzyl-N-{2-[7α, 12α-dihydroxy-10β,13β-dimethyl-17β-(3-methoxycarbonyl-1-methylpropyl)hexadecahydrocyclopenta[a]phen-anthren-3β-yloxy]ethyl}quinoline-3-carboxamide]",22
9,"CC(=O)c1c(C)nc2ccccc2c1NCc1ccc(C#CC2(O)CCC3(C)C(CC(O)C4C3CC(O)C3(C)C4CC[C@@H]3C(C)CCC(=O)O)C2)c(Cl)c1 (stereo partly drawn) [Example 25, 2-Methyl-3-acetyl-4-{4-[1-(3α,7α,12α-trihydroxy-10β,13β-dimethyl-17β-(3-carboxy-1-methylpropyl)hexadecahydrocyclopenta[a]phenanthren-3-yl)ethyn-2-yl]-3-chlorobenzylamino}quinoline]",18
10,"CC(=O)c1c(C)nc2ccccc2c1NCc1ccc(C#CC2(O)CCC3(C)C(CC(O)C4C3CC(O)C3(C)C4CC[C@@H]3C(C)CCC(=O)O)C2)cc1Cl (stereo partly drawn) [Example 28, 2-Methyl-3-acetyl-4-{4-[1-(3α,7α,12α-trihydroxy-10β,13β-dimethyl-17β-(3-carboxy-1-methylpropyl)hexadecahydrocyclopenta[a]phenanthren-3-yl)ethyn-2-yl]-2-chlorobenzylamino}quinoline]",69
11,CC(=O)c1c(C)nc2ccccc2c1NCc1ccc(C#CC2(O)CCC3(C)C(CC(O)C4C3CC(O)C3(C)C4CC[C@@H]3C(C)CCC(=O)O)C2)cc1F (stereo partly drawn) [Example 26],52
12,"CC(=O)c1c(C)nc2ccccc2c1NCc1cccc(CC[C@@]2(O)CC[C@@]3(C)C(C[C@@H](O)C4C3C[C@H](O)[C@@]3(C)C4CC[C@@H]3[C@H](C)CCC(=O)NCCS(=O)(=O)O)C2)c1 (stereo partly drawn) [Example 16, 2-Methyl-3-acetyl-4-{3-[1-(3α,7α,12α-trihydroxy-10β,13β-dimethyl-17β(3-(2-sulfoethylcarbamoyl)-1-methylpropyl)hexadecahydrocyclopenta[a]phenanthren-3-yl)eth-2-yl]benzylamino}quinoline]",27
13,"CC(=O)c1c(C)nc2ccccc2c1NCc1ccc(CCC2(O)CCC3(C)C(CC(O)C4C3CC(O)C3(C)C4CC[C@@H]3C(C)CCC(=O)O)C2)c(F)c1 (stereo partly drawn) [Example 24, 2-Methyl-3-acetyl-4-{4-[1-(3α,7α,12α-trihydroxy-10β,13β-dimehtyl-17β-(3-carboxy-1-methylpropyl)hexadecahydrocyclopenta[a]phenanthren-3-yl)eth-2-yl]-3-fluorobenzylamino}quinoline]",29
14,"CC(=O)c1c(NCc2ccc(C#CC3(O)CC[C@@]4(C)C(CC(O)C5C4CC(O)[C@@]4(C)C5CC[C@@H]4[C@H](C)CCC(=O)O)C3)cc2)cc(C)nc1C (stereo partly drawn) [Example 30, 2,6-Dimethyl-3-acetyl-4-{4-[1-(3α,7α,12α-trihydroxy-10β,13β-dimethyl-17β-(3-carboxy-1-methylpropyl)hexadecahydrocyclopenta[a]phenanthren-3-yl)ethyn-2-yl]benzylamino}pyridine]",48
15,"CC(=O)c1c(C)nc2ccccc2c1NCc1ccc(C#CC2(O)CCC3(C)C(CC(O)C4C3CC(O)C3(C)C4CC[C@@H]3C(C)CCC(=O)O)C2)c(F)c1 (stereo partly drawn) [Example 23, 2-Methyl-3-acetyl-4-{4-[1-(3α,7α,12α-trihydroxy-10β,13β-dimethyl-17β-(3-carboxy-1-methylpropyl)hexadecahydrocyclopenta[a]phenanthren-3-yl)ethyn-2-yl]-3-fluorobenzylamino}quinoline]",16

# Test system: not given
# Assay: not given
# Conditions: not given
row,SMILES,melting point [°C]
1,Cc1nc2ccccc2c(NCc2ccc(C#CC3(O)CCC4(C)C(CC(O)C5C4CC(O)C4(C)C5CC[C@@H]4C(C)CCC(=O)O)C3)cc2)c1C(=O)OC(C)C (stereo partly drawn),150
